According to PMC7827406, “Structure–Activity Relationship (SAR) Study of Spautin-1 to Entail the Discovery of Novel NEK4 Inhibitors” (International Journal of Molecular Sciences, 2021):
Where two headings read alike, the source gives them in different places.

How the values were obtained:
Assay in all cases: biochemical
Set-up in all cases: Eurofins KinaseProfiler full panel at Km ATP, residual kinase activity (%) relative to DMSO
PEK(h) = molecular target: T1, PEK(h) (Homo sapiens, UniProt Q9NZJ5)
T1 construct: gene EIF2AK3
T1 sequence (Q9NZJ5 1-1116): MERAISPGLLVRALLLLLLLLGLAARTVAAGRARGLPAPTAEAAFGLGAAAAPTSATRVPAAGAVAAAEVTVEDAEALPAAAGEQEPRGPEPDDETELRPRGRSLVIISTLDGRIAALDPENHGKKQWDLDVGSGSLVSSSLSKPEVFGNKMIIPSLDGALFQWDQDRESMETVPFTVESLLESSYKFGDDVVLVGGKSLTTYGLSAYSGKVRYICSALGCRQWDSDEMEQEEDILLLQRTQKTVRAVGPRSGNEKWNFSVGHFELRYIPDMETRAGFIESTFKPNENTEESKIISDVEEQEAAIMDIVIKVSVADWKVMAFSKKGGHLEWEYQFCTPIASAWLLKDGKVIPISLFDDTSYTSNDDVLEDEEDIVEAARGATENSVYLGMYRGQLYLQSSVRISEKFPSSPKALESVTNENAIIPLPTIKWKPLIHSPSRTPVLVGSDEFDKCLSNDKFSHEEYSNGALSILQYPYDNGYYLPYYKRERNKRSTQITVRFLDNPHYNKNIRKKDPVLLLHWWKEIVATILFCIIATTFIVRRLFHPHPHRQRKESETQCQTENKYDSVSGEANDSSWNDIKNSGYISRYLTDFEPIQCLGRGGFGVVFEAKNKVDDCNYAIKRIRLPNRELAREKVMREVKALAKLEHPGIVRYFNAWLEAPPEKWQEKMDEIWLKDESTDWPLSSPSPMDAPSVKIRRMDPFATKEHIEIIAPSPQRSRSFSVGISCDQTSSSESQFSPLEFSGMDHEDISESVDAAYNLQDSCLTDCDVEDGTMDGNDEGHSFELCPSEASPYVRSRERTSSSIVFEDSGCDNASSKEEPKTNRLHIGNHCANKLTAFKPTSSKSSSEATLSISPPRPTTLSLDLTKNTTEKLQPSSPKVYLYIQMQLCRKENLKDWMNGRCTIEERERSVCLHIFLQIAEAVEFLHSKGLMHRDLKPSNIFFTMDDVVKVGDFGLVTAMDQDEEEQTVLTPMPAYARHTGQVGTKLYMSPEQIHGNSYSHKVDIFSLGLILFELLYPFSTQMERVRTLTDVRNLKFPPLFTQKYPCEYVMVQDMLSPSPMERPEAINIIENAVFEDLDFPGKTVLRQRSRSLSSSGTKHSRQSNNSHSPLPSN
Procedure, shortened: (§1)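 Two 10 µM single-concentration screens were run: a competition-binding screen, in which DNA-tagged kinase bound to immobilized ligands was quantified by qPCR, and a radiometric activity panel at Km ATP. Each is expressed as residual kinase activity (%).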

Plk1(h) = Plk1(h) (Homo sapiens, UniProt P53350)
Sequence of Plk1(h) (P53350 whole entry): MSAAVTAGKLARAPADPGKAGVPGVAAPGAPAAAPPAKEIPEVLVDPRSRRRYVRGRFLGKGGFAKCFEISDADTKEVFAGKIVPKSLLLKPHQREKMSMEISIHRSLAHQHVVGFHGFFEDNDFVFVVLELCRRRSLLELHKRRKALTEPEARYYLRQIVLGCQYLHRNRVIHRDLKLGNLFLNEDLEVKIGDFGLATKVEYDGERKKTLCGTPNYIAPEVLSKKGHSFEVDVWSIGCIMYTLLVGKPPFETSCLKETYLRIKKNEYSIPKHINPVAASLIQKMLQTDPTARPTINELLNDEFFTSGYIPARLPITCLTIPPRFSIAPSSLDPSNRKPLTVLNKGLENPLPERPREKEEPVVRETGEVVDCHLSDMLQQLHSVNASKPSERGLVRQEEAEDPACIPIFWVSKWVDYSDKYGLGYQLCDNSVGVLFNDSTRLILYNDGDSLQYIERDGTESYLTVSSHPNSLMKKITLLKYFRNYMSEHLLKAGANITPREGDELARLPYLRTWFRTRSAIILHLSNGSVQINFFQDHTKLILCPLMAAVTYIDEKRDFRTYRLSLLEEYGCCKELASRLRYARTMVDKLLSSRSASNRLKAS
Procedure, shortened: as §1

Flt3(D835Y)(h) = molecular target: T2, Flt3(D835Y)(h) (Homo sapiens, UniProt P36888, D835Y)
T2 sequence (P36888 1-993 D835Y): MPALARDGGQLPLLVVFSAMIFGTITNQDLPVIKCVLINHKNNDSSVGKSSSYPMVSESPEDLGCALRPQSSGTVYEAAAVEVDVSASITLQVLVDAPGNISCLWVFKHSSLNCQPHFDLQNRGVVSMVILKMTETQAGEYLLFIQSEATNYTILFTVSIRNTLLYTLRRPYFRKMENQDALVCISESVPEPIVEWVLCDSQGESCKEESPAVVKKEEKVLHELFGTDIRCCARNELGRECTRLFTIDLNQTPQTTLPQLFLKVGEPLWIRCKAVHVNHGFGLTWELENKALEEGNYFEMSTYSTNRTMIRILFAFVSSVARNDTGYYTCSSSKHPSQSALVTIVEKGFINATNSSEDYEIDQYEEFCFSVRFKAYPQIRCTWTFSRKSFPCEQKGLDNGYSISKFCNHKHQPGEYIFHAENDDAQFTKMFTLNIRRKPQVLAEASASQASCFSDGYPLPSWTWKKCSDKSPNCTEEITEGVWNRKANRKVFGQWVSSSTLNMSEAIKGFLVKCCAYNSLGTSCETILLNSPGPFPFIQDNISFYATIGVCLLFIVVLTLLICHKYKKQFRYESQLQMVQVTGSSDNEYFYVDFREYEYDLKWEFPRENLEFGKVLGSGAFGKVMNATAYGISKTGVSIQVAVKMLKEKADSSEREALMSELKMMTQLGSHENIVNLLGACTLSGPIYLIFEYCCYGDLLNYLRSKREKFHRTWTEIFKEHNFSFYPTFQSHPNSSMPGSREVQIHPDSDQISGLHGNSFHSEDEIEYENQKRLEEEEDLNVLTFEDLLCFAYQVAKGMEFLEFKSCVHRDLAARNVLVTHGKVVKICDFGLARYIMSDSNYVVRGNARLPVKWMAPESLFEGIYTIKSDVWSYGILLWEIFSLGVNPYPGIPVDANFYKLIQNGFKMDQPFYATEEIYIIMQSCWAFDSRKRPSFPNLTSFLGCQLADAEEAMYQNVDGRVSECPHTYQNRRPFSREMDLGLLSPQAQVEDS
Procedure, shortened: as §1

[1] = read-out: Residual activity (%) Spautin-1 5aa
[2] = read-out: Residual activity (%) 5as
[3] = read-out: Residual activity (%) 5at
[4] = read-out: Residual activity (%) 5ay

SMILES: Fc1ccc(CNc2ncnc3ccc(F)cc23)cc1 [5aa, 6-Fluoro-N-(4-fluorobenzyl)-4-Quinazolinamine]
- remaining activity at 10 µM (PEK(h); [1]): 105%
- remaining activity at 10 µM (Plk1(h); [1]): 93%
- remaining activity at 10 µM (Flt3(D835Y)(h); [1]): 91%

SMILES: Fc1ccc(CCNc2ncnc3ccc(F)cc23)cc1 [5as, 6-Fluoro-N-[2-(4-Fluorophenyl)Ethyl]-4-Quinazolinamine]
- remaining activity at 10 µM (PEK(h); [2]): 112%
- remaining activity at 10 µM (Plk1(h); [2]): 96%
- remaining activity at 10 µM (Flt3(D835Y)(h); [2]): 87%

SMILES: Fc1ccc2ncnc(NCCc3ccc(Cl)cc3)c2c1 [5at, N-[2-(4-Chlorophenyl)Ethyl]-6-Fluoro-4-Quinazolinamine]
- remaining activity at 10 µM (PEK(h); [3]): 110%
- remaining activity at 10 µM (Plk1(h); [3]): 92%
- remaining activity at 10 µM (Flt3(D835Y)(h); [3]): 80%

SMILES: COc1ccc2ncnc(Nc3cccc(F)c3)c2c1 [5ay, N-(3-Fluorophenyl)-6-Methoxy-4-Quinazolinamine]
- remaining activity at 10 µM (PEK(h); [4]): 108%
- remaining activity at 10 µM (Plk1(h); [4]): 96%
- remaining activity at 10 µM (Flt3(D835Y)(h); [4]): 49%
